Common to all, as to assay: Minimal inhibitory concentration (M.I.C.), agar dilution method
Common to all, as to details: TSA, inoculum 10^7 /ml

In one test the test system is P. morganii IFO 3168. The test is classed as cell-based, Proteus morganii. An excerpt: (§1) (a) Determination of minimal inhibitory concentrations (Tables 1 to 8):
(§2) Procedure: agar dilution method

A further test has as its system C. freundii GN 1706. In kind it is cell-based, Citrobacter freundii.
Text: as §1, §2

A further test deals with C. freundii GN 99. In kind it is cell-based, Citrobacter freundii.
Text: as §1, §2

A further test deals with P. vulgaris GN 4413. The test is classed as cell-based, Proteus vulgaris.
Text: as §1, §2

Another test deals with P. vulgaris IFO 3988. The test is classed as cell-based, Proteus vulgaris.
Text: as §1, §2

The subject of another test is P. mirabilis GN 4359. The test is classed as cell-based, Proteus mirabilis.
Text: as §1, §2

The test system of a further test is S. aureus 1840. The test is classed as cell-based, Staphylococcus aureus.
Text: as §1, §2

In another test the test system is S. aureus 209P. In kind it is cell-based, Staphylococcus aureus.
Text: as §1, §2

For another test, the system named is E. cloacae TN 1282. The test is classed as cell-based, Enterobacter cloacae.
Text: as §1, §2

The subject of a further test is E. coli 0-111. The test is classed as cell-based, Escherichia coli.
Text: The minimal inhibitory concentrations (M.I.C.) of some representative cephalosporin derivatives of this invention as produced by the procedures described in those examples and the minimal inhibitory concentrations of cephalothin [sodium 7-(2-thienylacetamido)-3-acetoxymethyl-3-cephem-4-carboxylate], cephaloridine [7-(2-thienylacetamido)-3-(1-pyridyl)methyl-3-cephem-4-carboxylic acid betaine] and cefazolin [sodium 7-(1H-tetrazol-1-yl)acetamido-3-(2-methyl-1,3,4-thiadiazol-5-yl)thiomethyl-3-cephem-4-carboxylate], which are among the clinically established and commercially available cephalosporins (as described, for example, in the New England Journal of Medicine 294, 24, 1976 and Journal of Pharmaceutical Science 64, 1899, 1975), both against various bacteria, as well as the therapeutic effects of some respresentative cephalosporin derivatives of this invention and of cephaloridine in infected mice, are shown in tables.
as §1, §2

The test system of another test is E. coli NIHJ JC-2. The test is classed as cell-based, Escherichia coli.
Text: as §1, §2

For another test, the system named is E. coli T-7. In kind it is cell-based, Escherichia coli.
Text: as §1, §2

Another test deals with S. marcescens TN 24. The test is classed as cell-based, Serratia marcescens.
Text: as §1, §2

The test system of the next test is S. marcescens IFO 12648. The test is classed as cell-based, Serratia marcescens.
Text: as §1, §2

The subject of a further test is K. pneumoniae GN 3835. The test is classed as cell-based, Klebsiella pneumoniae.
Text: as §1, §2

Another test concerns K. pneumoniae DT. The test is classed as cell-based, Klebsiella pneumoniae.
Text: as §1, §2

The next test relates to P. rettgeri GN4733. In kind it is cell-based, Proteus rettgeri.
Text: as §1, §2

The test system of a further test is P. rettgeri TN 338. In kind it is cell-based, Proteus rettgeri.
Text: as §1, §2

With `CCCNC(=O)O/N=C(\C(=O)NC1C(=O)N2C(C(=O)O)=C(C)CSC12)c1csc(=N)[nH]1` (stereo not drawn) [Example II - 15], the “minimal inhibitory concentration (M.I.C.)” value in the test on P. morganii IFO 3168 is on record as 50; with C. freundii GN 1706, 12.5; in the test on C. freundii GN 99 it was 12.5; in the test with P. vulgaris GN 4413 it was 50; in the test on P. vulgaris IFO 3988, 12.5; in the test on P. mirabilis GN 4359, 3.13. Further, the “minimal inhibitory concentration (M.I.C.)” value in the test with S. aureus 1840 is recorded as 12.5; in the test on S. aureus 209P, 12.5; with E. cloacae TN 1282, above 100; in the test on E. coli 0-111, 3.13; in the test on E. coli NIHJ JC-2 it was 6.25; in the test with E. coli T-7 it was 25. For the same compound, the “minimal inhibitory concentration (M.I.C.)” value with S. marcescens TN 24 is given as above 100; in the test on S. marcescens IFO 12648, above 100; in the test on K. pneumoniae GN 3835 it was 6.25; with K. pneumoniae DT, 3.13; with P. rettgeri GN4733, 0.39; with P. rettgeri TN 338 it was 0.1.
On to `CCCCNC(=O)O/N=C(\C(=O)NC1C(=O)N2C(C(=O)O)=C(C)CSC12)c1csc(=N)[nH]1` (stereo not drawn) [Example II - 23], for which the “minimal inhibitory concentration (M.I.C.)” value is 100 in the test on P. morganii IFO 3168; 25 in the test with C. freundii GN 1706; 12.5 in the test on C. freundii GN 99; 50 in the test on P. vulgaris GN 4413; 12.5 in the test on P. vulgaris IFO 3988; 3.13 in the test with P. mirabilis GN 4359. The “minimal inhibitory concentration (M.I.C.)” value stood at 12.5 with S. aureus 1840; 12.5 with S. aureus 209P; 100 with E. cloacae TN 1282; 6.25 in the test on E. coli 0-111; 12.5 in the test with E. coli NIHJ JC-2; 25 in the test on E. coli T-7. In addition, the “minimal inhibitory concentration (M.I.C.)” value is above 100 in the test with S. marcescens TN 24; 100 with S. marcescens IFO 12648; 6.25 in the test on K. pneumoniae GN 3835; 3.13 in the test on K. pneumoniae DT; 0.39 in the test with P. rettgeri GN4733; 0.1 with P. rettgeri TN 338.
Regarding `CCCNC(=O)O/N=C(\C(=O)NC1C(=O)N2C(C(=O)O)=C(COC(C)=O)CSC12)c1csc(=N)[nH]1` (stereo not drawn) [Example II - 12], the “minimal inhibitory concentration (M.I.C.)” value in the test with P. morganii IFO 3168 is 0.78; in the test with C. freundii GN 1706, 0.78; in the test on C. freundii GN 99 it was 0.39; with P. vulgaris GN 4413, 12.5; in the test on P. vulgaris IFO 3988 it was 0.39; with P. mirabilis GN 4359, 0.1. Besides, the “minimal inhibitory concentration (M.I.C.)” value with S. aureus 1840 is on record as 1.56; in the test with S. aureus 209P it was 1.56; in the test with E. cloacae TN 1282 it was 6.25; in the test on E. coli 0-111, 0.024; in the test on E. coli NIHJ JC-2, 0.39; in the test with E. coli T-7, 3.13. In addition, the “minimal inhibitory concentration (M.I.C.)” value is given as 12.5 in the test on S. marcescens TN 24; 6.25 with S. marcescens IFO 12648; 0.39 in the test with K. pneumoniae GN 3835; 0.1 with K. pneumoniae DT; 0.2 in the test on P. rettgeri GN4733; at most 0.012 in the test with P. rettgeri TN 338.

The values above are taken from patent US4200575A, “7[(2-Thiazolyl)-2-(oxoimino)acetamido]cephalosporin derivatives” (Takeda Chemical Industries, Ltd., priority 1977, dated 1980).
